# Reference: patent US20220267298A1 (priority 2019, published 2022)
# Where “and” joins values, the source holds several entries; their conditions need not be identical. Identical values can stand only once.
# Target: T1, GRK2 (Homo sapiens, UniProt P25098)
# T1 sequence (P25098 1-689): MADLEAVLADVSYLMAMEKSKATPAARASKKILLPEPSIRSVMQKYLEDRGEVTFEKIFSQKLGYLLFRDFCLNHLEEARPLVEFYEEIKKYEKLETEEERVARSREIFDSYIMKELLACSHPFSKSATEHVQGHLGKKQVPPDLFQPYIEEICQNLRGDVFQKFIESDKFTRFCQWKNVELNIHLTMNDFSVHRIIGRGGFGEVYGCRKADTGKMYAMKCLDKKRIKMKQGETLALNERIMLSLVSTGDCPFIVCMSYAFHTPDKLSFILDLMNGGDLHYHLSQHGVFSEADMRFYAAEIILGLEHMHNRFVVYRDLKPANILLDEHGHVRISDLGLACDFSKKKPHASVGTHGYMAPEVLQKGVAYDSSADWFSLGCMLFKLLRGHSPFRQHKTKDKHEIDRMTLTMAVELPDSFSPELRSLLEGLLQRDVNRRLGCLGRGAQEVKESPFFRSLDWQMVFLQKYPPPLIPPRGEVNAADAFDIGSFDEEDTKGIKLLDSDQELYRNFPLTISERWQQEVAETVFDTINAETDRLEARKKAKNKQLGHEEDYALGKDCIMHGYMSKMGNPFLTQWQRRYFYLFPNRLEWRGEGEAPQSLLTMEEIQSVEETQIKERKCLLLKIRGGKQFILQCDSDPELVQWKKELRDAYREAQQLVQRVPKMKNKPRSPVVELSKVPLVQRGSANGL
# Test: biochemical
# Details: GRK2 IC50 (μM), 10 nM GRK2; 10 uM ATP
row,Structure (SMILES),IC50
1,"COc1cccc(Cn2cnc3ccc(-c4cn[nH]c4)cc3c2=O)c1 [Compound 2, 3-(3-Methoxybenzyl)-6-(1H-pyrazol-4-yl)quinazolin-4(3H)-one]",~0.01 µM and 0.011 µM
2,"O=c1c2cc(-c3cn[nH]c3)ccc2ncn1Cc1cccc(-c2ncco2)c1 [Compound 28, 3-(3-(Oxazol-2-yl)benzyl)-6-(1H-pyrazol-4-yl)quinazolin-4(3H)-one]",0.446 µM
3,"NS(=O)(=O)c1cccc(Cn2cnc3ccc(-c4cn[nH]c4)cc3c2=O)c1 [Compound 34, 3-[[4-Oxo-6-(1H-pyrazol-4-yl)quinazolin-3-yl]methyl]benzenesulfonamide]",0.03 µM

# Target: T1, GRK2
# Test: biochemical
# Details: not given
# Protocol: hGRK2 LANCE Ultra In Vitro Assay
# G-protein coupled receptor kinases (GR Kinases) desensitize activated G-protein coupled receptors (GPCRs), by phosphorylation of cytoplasmic loops or carboxyl-terminal tails of GPCRs. GRK2 is one of the 6 different GR kinases and is implicated in heart failure and diabetes.
# This assay is sensitive and requires as low as 10 nM enzyme, in a total volume of 10 μL. In addition, the ATP concentration can be varied over a broad range, without interfering with the assay or changing the assay condition. […] Testing inhibitors routinely at both high and low ATP concentrations also enables identification of potential non-ATP competitive inhibitors.
# Paroxetine was used as the reference compound in this assay.
# Test compounds were dissolved in DMSO at 1 mM and were 3-fold serial diluted. The compound DMSO solutions were then added (100 nL) into a plate well using an acoustic dispenser. To each well was then added 20 nM GRK2 (5 μL) in assay buffer (20 mM HEPES, pH 7.5, 10 mM MgCl2, 0.001% Tween-20®). The plate was sealed and centrifuged at 1000 rpm for 1 min.
# The plate and wells containing a mixture of GRK2 and test compound were incubated at ambient temperature for 30 min (prior to initializing the enzymatic reaction).
# Enzyme reactions were initiated by the addition of 4.9 μL Substrates/Eu-Ab mix to each well.
# The plates were sealed and centrifuged at 1000 rpm for 1 min.
# The enzyme reactions were quenched by addition of 10 μL of 12 mM EDTA in 1× LANCE detection solution to each well. The plates were then incubated at ambient temperature for 30 min.
# The raw HTRF data were converted to % active as follows:
# % active=(sample−NC)/(PC−NC)*100
row,Structure (SMILES),IC50
1,"COc1cccc(Cn2cnc3cc(OC)c(-c4cn[nH]c4)cc3c2=O)c1 [Compound 6, 7-Methoxy-3-[(3-methoxyphenyl)methyl]-6-(1H-pyrazol-4-yl)quinazolin-4-one]",16 nM
2,"COc1cccc(Cn2cnc3ccc(-c4cn[nH]c4)c(C#N)c3c2=O)c1 [Compound 1, 3-(3-Methoxybenzyl)-4-oxo-6-(1H-pyrazol-4-yl)-3,4-dihydroquinazoline-5-carbonitrile]",5 nM
3,"COc1cccc(Cn2cnc3ccc(-c4cn[nH]c4)c(Cl)c3c2=O)c1 [Compound 7, 5-Chloro-3-[(3-methoxyphenyl)methyl]-6-(1H-pyrazol-4-yl)quinazolin-4-one]",16 nM
4,"COc1cccc(Cn2c(C)nc3ccc(-c4ccnc(N)n4)cc3c2=O)c1 [Compound 10, 6-(2-Aminopyrimidin-4-yl)-3-[(3-methoxyphenyl)methyl]-2-methyl-quinazolin-4-one]",371 nM
5,"CCOc1cccc(Cn2cnc3ccc(-c4cn[nH]c4)c(F)c3c2=O)c1 [Compound 8, 3-(3-Ethoxybenzyl)-5-fluoro-6-(1H-pyrazol-4-yl)quinazolin-4(3H)-one]",29 nM
6,"COc1cccc(Cn2cnc3ccc(-c4cn[nH]c4)c(O)c3c2=O)c1 [Compound 4, 5-Hydroxy-3-(3-methoxybenzyl)-6-(1H-pyrazol-4-yl)quinazolin-4(3H)-one]",9 nM
7,"COc1cccc(Cn2cnc3ccc(-c4cn[nH]c4)c(F)c3c2=O)c1 [Compound 3, 5-Fluoro-3-(3-methoxybenzyl)-6-(1H-pyrazol-4-yl)quinazolin-4(3H)-one]",7 nM

# Second part, the compound after the results:
row,IC50,Structure (SMILES)
1,93 nM,"COc1cccc(Cn2cnc3c(F)cc(-c4cn[nH]c4)cc3c2=O)c1 [Compound 9, 8-Fluoro-3-[(3-methoxyphenyl)methyl]-6-(1H-pyrazol-4-yl)quinazolin-4-one]"
2,1410 nM,"COC(=O)C(c1cccc(OC)c1)n1cnc2ccc(-c3cn[nH]c3)cc2c1=O (stereo not drawn) [Compound 11, Methyl 2-(3-methoxyphenyl)-2-[4-oxo-6-(1H-pyrazol-4-yl)quinazolin-3-yl]acetate]"
3,9 nM,"COc1cccc(Cn2cnc3ccc(-c4cn[nH]c4)c(OC)c3c2=O)c1 [Compound 5, 5-Methoxy-3-[(3-methoxyphenyl)methyl]-6-(1H-pyrazol-4-yl)quinazolin-4-one]"
4,2550 nM,"COc1cccc(C(C(=O)O)n2cnc3ccc(-c4cn[nH]c4)cc3c2=O)c1 (stereo not drawn) [Compound 12, (3-Methoxyphenyl)-2-[4-oxo-6-(1H-pyrazol-4-yl)quinazolin-3-yl]acetic acid]"

# Same assay, conditions: 10 nM GRK2; ATP 30 or 600 μM, not stated which; read-out: GRK2 Lancer IC50
row,Structure (SMILES),IC50
1,"COc1cccc(Cn2cnc3ccc(-c4cn[nH]c4)cc3c2=O)c1 [Compound 2, 3-(3-Methoxybenzyl)-6-(1H-pyrazol-4-yl)quinazolin-4(3H)-one]",6 nM
